From ChEMBL document CHEMBL1146649, “New highly active taxoids from 9 beta-dihydrobaccatin-9,10-acetals. Part 5” (2004)
Values after ≈ are worked out from the molar mass of the structure shown.

Experiments:
P388 = assay: Concentration required to inhibit mouse P388 cell line growth by 50% at 72 hr continuous exposure; type: functional; details: P388, 72 h
PC-6 [1] = assay: Concentration required to inhibit human PC-6 cell line growth by 50% at 72 hr continuous exposure; type: functional; details: PC-6, 72 h
PC-6 [2] = assay: Concentration that inhibited the growth of PC-6/VCR29-9 cells by 50% at 72 hr continuous exposure; type: functional; details: Homo sapiens, PC-6, 72 h
PC-6 [3] = assay: Concentration required to inhibit human PC-6/VP1-1 cell line growth by 50% at 72 hr exposure; type: functional; details: PC-6, 72 h
PC-12 = assay: Concentration required to inhibit human PC-12 cell line growth by 50% at 72 hr continuous exposure; type: functional; details: PC-12, 72 h
PC-6 [4] = assay: Concentration required to inhibit human PC-6/VCR29-9 cell line growth by 50% at 72 hr of exposure; type: functional; details: PC-6, 72 h
B16 [5] = assay: Effective dose of perorally administered compound against B16 melanoma BL6 cells implanted into mice; type: functional; details: Mus musculus
B16 [6] = assay: Effective dose of intravenously administered compound against B16 melanoma BL6 cells implanted into mice; type: functional; details: Mus musculus, B16, iv
Mus musculus [7] = assay: Maximum rate of body weight loss after intravenous administration of 11.9 mg/kg of compound in mice; type: functional
Mus musculus [8] = assay: Maximum rate of body weight loss after intravenous administration of 17.8 mg/kg of compound in mice; type: functional
Mus musculus [9] = assay: Maximum rate of body weight loss after peroral administration of 17.8 mg/kg of compound in mice; type: functional; details: route oral
Mus musculus [10] = assay: Maximum rate of body weight loss after peroral administration of 26.7 mg/kg of compound in mice; type: functional; details: route oral
Mus musculus [11] = assay: Maximum rate of body weight loss after peroral administration of 7.9 mg/kg of compound in mice; <0 indicates no body weight loss; type: functional; details: route oral
B16 [12] = assay: Antitumor activity of 11.9 mg/kg of intravenously administered compound against B16 melanoma BL6 cells implanted into mice, value reported is percent compared to control; type: functional, Mus musculus; details: route intravenous
B16 [13] = assay: Antitumor activity of 11.9 mg/kg of perorally administered compound against B16 melanoma BL6 cells implanted into mice, value reported is percent compared to control; type: functional, Mus musculus; details: route oral
Mus musculus [14] = assay: Antitumor activity of 17.8 mg/kg of intravenously administered compound against B16 melanoma BL6 cells implanted into mice, value reported is percent compared to control; type: functional; details: route intravenous
B16 [15] = assay: Antitumor activity of 17.8 mg/kg of perorally administered compound against B16 melanoma BL6 cells implanted into mice, value reported is percent compared to control; type: functional, Mus musculus; details: route oral
Mus musculus [16] = assay: Antitumor activity of 26.7 mg/kg of perorally administered compound against B16 melanoma BL6 cells implanted into mice, value reported is percent compared to control; type: functional; details: route oral
Mus musculus [17] = assay: Antitumor activity of 7.9 mg/kg of intravenously administered compound against B16 melanoma BL6 cells implanted into mice, value reported is percent compared to control; type: functional; details: route intravenous
Mus musculus [18] = assay: Antitumor activity of 7.9 mg/kg of perorally administered compound against B16 melanoma BL6 cells implanted into mice, value reported is percent compared to control; type: functional; details: route oral
Mus musculus [19] = assay: Maximum rate of body weight loss after intravenous administration of 7.9 mg/kg of compound in mice; <0 indicates no weight loss; type: functional
Mus musculus [20] = assay: Maximum rate of body weight loss after peroral administration of 11.9 mg/kg of compound in mice; <0 indicates no body weight loss; type: functional; details: route oral
Mus musculus [21] = assay: Effective dose of intravenously administered compound against B16 melanoma BL6 cells implanted into mice; range is 7.9-17.8; type: functional; details: B16, iv
Mus musculus [22] = assay: Effective dose of perorally administered compound against B16 melanoma BL6 cells implanted into mice; range is 7.9-17.8; type: functional; details: B16, po
Mus musculus [23] = assay: Number of mice died at 11.9 mg/kg of intravenous dose, among the total 6 mice tested; type: functional
Mus musculus [24] = assay: Number of mice died at 11.9 mg/kg of peroral dose, among the total 6 mice tested; type: functional; details: route oral
Mus musculus [25] = assay: Number of mice died at 17.8 mg/kg of intravenous dose among the total 6 mice tested; type: functional
Mus musculus [26] = assay: Number of mice died at 17.8 mg/kg of peroral dose among the total 6 mice tested; type: functional; details: route oral
Mus musculus [27] = assay: Number of mice died at 26.7 mg/kg of intravenous dose of compound among the total 6 mice tested; type: functional
Mus musculus [28] = assay: Number of mice died at 26.7 mg/kg of peroral dose of compound among the total 6 mice tested; type: functional; details: route oral
Mus musculus [29] = assay: Number of mice died at 7.9 mg/kg of intravenous dose of compound among the total 6 mice tested; type: functional
Mus musculus [30] = assay: Number of mice died at 7.9 mg/kg of peroral dose of compound among the total 6 mice tested; type: functional; details: route oral
PC-6 [31] = assay: Concentration required to inhibit human PC-6/VCR29-9 cell line growth by 50% at 72 hr exposure; type: functional; details: PC-6, 72 h
Mus musculus [32] = assay: Maximum rate of body weight loss after intravenous administration of 11.9 mg/kg of compound in mice; <0 indicates no weight loss; type: functional
Mus musculus [33] = assay: Antitumor activity of 26.7 mg/kg of intravenously administered compound against B16 melanoma BL6 cells implanted into mice, value reported is percent compared to control; type: functional; details: route intravenous
Mus musculus [34] = assay: Maximum rate of body weight loss after intravenous administration of 26.7 mg/kg of compound in mice; type: functional
Mus musculus [35] = assay: Maximum rate of body weight loss after intravenous administration of 7.9 mg/kg of compound in mice; type: functional
Mus musculus [36] = assay: Maximum rate of body weight loss after peroral administration of 11.9 mg/kg of compound in mice; <0 indicates no weight loss; type: functional; details: route oral
Mus musculus [37] = assay: Effective dose of perorally administered compound against B16 melanoma BL6 cells implanted into mice; range is 11.9-26.7; type: functional; details: B16, po
Mus musculus [38] = assay: Number of mice died at 40.0 mg/kg of peroral dose of compound among the total 6 mice tested; type: functional; details: route oral

Row | GI50 (P388) | Structure (SMILES) | GI50 (PC-6 [1]) | GI50 (PC-6 [2]) | GI50 (PC-6 [3]) | GI50 (PC-12) | ED50 (B16 [6]) | BWLmax (Mus musculus [8]) | BWLmax (Mus musculus [9]) | BWLmax (Mus musculus [10]) | IR (B16 [12]) | IR (B16 [13]) | IR (Mus musculus [14]) | IR (B16 [15]) | IR (Mus musculus [16]) | IR (Mus musculus [17]) | ED50 (Mus musculus [21]) | Mortality (Mus musculus [23]) | Mortality (Mus musculus [24]) | Mortality (Mus musculus [25]) | Mortality (Mus musculus [26]) | further results
1 | 0.07 ng/mL (≈ 0.0818 nM) | CC(=O)O[C@@]12CO[C@@H]1CC[C@@]1(C)[C@@H]3O[C@H](CN(C)C)O[C@@H]3C3=C(C)[C@@H](OC(=O)[C@H](O)[C@@H](NC(=O)OC(C)(C)C)c4cncs4)C[C@@](O)([C@@H](OCc4ccccc4)[C@@H]12)C3(C)C | 0.3 ng/mL (≈ 0.35 nM) | 1.63 ng/mL (≈ 1.9 nM) | 23.8 ng/mL (≈ 27.8 nM) | 0.17 ng/mL (≈ 0.199 nM) | – | – | – | – | – | – | – | – | – | – | – | – | – | – | – | –
2 | 2.93 ng/mL (≈ 3.49 nM) | CC(=O)O[C@H]1C(=O)[C@@]2(C)[C@H]([C@H](OCc3ccccc3)[C@]3(O)C[C@H](OC(=O)[C@H](O)[C@@H](NC(=O)c4ccccc4)c4ccccc4)C(C)=C1C3(C)C)[C@]1(OC(C)=O)CO[C@@H]1C[C@@H]2O | 1.27 ng/mL (≈ 1.51 nM) | – | 1000 ng/mL (≈ 1190 nM) | 539 ng/mL (≈ 642 nM) | – | – | – | – | – | – | – | – | – | – | – | – | – | – | – | GI50 (PC-6 [4]): 455 ng/mL (≈ 542 nM)
3 | 0.04 ng/mL (≈ 0.0445 nM) | CC(=O)O[C@@]12CO[C@@H]1CC[C@@]1(C)[C@@H]3O[C@H](CN4CCOCC4)O[C@@H]3C3=C(C)[C@@H](OC(=O)[C@H](O)[C@@H](NC(=O)OC(C)(C)C)c4cncs4)C[C@@](O)([C@@H](OCc4ccccc4)[C@@H]12)C3(C)C | 0.07 ng/mL (≈ 0.0779 nM) | 0.66 ng/mL (≈ 0.735 nM) | 20.5 ng/mL (≈ 22.8 nM) | 0.12 ng/mL (≈ 0.134 nM) | 7.9 mg/kg | – | – | – | – | – | – | – | – | – | – | – | – | – | – | ED50 (B16 [5]): None
4 | – | COc1ccc([C@H](NC(=O)OC(C)(C)C)[C@@H](O)C(=O)O[C@H]2C[C@@]3(O)[C@@H](OCc4ccccc4)[C@H]4[C@@](C)(CC[C@H]5OC[C@]54OC(C)=O)[C@@H]4O[C@H](CN5CCOCC5)O[C@@H]4C(=C2C)C3(C)C)nc1 | – | – | – | – | 5.9 mg/kg | – | – | – | – | – | – | – | – | – | – | – | – | – | – | ED50 (B16 [5]; B16, po): 13.3 mg/kg

Row | Structure (SMILES) | GI50 (P388) | GI50 (PC-6 [1]) | GI50 (PC-6 [2]) | GI50 (PC-6 [3]) | GI50 (PC-12) | ED50 (B16 [6]) | BWLmax (Mus musculus [8]) | BWLmax (Mus musculus [9]) | BWLmax (Mus musculus [10]) | IR (B16 [12]) | IR (B16 [13]) | IR (Mus musculus [14]) | IR (B16 [15]) | IR (Mus musculus [16]) | IR (Mus musculus [17]) | ED50 (Mus musculus [21]) | Mortality (Mus musculus [23]) | Mortality (Mus musculus [24]) | Mortality (Mus musculus [25]) | Mortality (Mus musculus [26]) | further results
5 | CC(=O)O[C@@]12CO[C@@H]1CC[C@@]1(C)[C@@H]3O[C@H](CN(C)C)O[C@@H]3C3=C(C)[C@@H](OC(=O)[C@H](O)[C@@H](NC(=O)OC(C)(C)C)c4ccccn4)C[C@@](O)([C@@H](OCc4ccccc4)[C@@H]12)C3(C)C | 0.41 ng/mL (≈ 0.482 nM) | 0.38 ng/mL (≈ 0.447 nM) | – | 54.2 ng/mL (≈ 63.8 nM) | 0.74 ng/mL (≈ 0.871 nM) | – | 8.6% | 8.8% | 13.1% | 95% | 88.8% | 97.7% | 97% | 97.5% | 82.3% | 17.8 mg/kg | 0 | 0 | 0 | 0 | BWLmax (Mus musculus [7]): 1%; BWLmax (Mus musculus [11]): <0%; IR (Mus musculus [18]): 72.8%; BWLmax (Mus musculus [19]): <0%; BWLmax (Mus musculus [20]): <0%; ED50 (Mus musculus [22]): 17.8 mg/kg; Mortality (Mus musculus [27]): 6; Mortality (Mus musculus [28]): 1; Mortality (Mus musculus [29]): 0; Mortality (Mus musculus [30]): 0; GI50 (PC-6 [31]): 4.04 ng/mL (≈ 4.75 nM)
6 | CC(=O)O[C@@]12CO[C@@H]1CC[C@@]1(C)[C@@H]3O[C@H](CN4CCOCC4)O[C@@H]3C3=C(C)[C@@H](OC(=O)[C@H](O)[C@@H](NC(=O)OC(C)(C)C)c4nccs4)C[C@@](O)([C@@H](OCc4ccccc4)[C@@H]12)C3(C)C | 0.06 ng/mL (≈ 0.0668 nM) | 0.12 ng/mL (≈ 0.134 nM) | – | 19.7 ng/mL (≈ 21.9 nM) | 0.13 ng/mL (≈ 0.145 nM) | – | 7.1% | 8.8% | 10% | 85.7% | 77.9% | 96.9% | 97% | 97.8% | 79.1% | 17.8 mg/kg | 0 | 0 | 0 | 0 | BWLmax (Mus musculus [32]): <0%; IR (Mus musculus [33]): 98.3%; BWLmax (Mus musculus [34]): 15%; BWLmax (Mus musculus [35]): 1.5%; BWLmax (Mus musculus [36]): <0%; ED50 (Mus musculus [37]): 26.7 mg/kg; Mortality (Mus musculus [27]): 2; Mortality (Mus musculus [28]): 0; Mortality (Mus musculus [38]): 6; Mortality (Mus musculus [29]): 0; GI50 (PC-6 [31]): 1.37 ng/mL (≈ 1.53 nM)
